Values of other authors in patent US20050175959A1, “System for the controlled delivery of an active material to a dental site” (Coll Partners Ltd., priority 2000, published 2005).

Details: in vivo

F [fluoride]
acute lethal dose of fluoride (F): 33 mg F/Kg body weight
chronic toxicity: 0.1 mg F/Kg
